The structures appear in SMILES notation.

The source of these data is US7446199B2, “Compositions useful as inhibitors of protein kinases” (Vertex Pharmaceuticals Incorporated, priority 2003, dated 2008).

For one test, the target named is c-Met (Homo sapiens, UniProt P08581). The test can be described thus: Ki determination for the inhibition of c-Met, coupled enzyme system. The settings on record: 200 μM ATP, 10 μM polyGluTyr, 80 nM c-Met, 30° C. It counts as biochemical. An outline of the steps: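 Coupled pyruvate kinase/lactate dehydrogenase NADH assay with 80 nM c-Met, 200 μM ATP, 10 μM polyGluTyr in pH 7.5 HEPES, 1.5% DMSO at 30° C. Compound (0.006–12.5 μM final, 12-point) preincubated 10 min; ATP started reaction, rates read over 10 min; Ki derived from rate versus inhibitor concentration.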
Chain of c-Met (P08581 25-1390): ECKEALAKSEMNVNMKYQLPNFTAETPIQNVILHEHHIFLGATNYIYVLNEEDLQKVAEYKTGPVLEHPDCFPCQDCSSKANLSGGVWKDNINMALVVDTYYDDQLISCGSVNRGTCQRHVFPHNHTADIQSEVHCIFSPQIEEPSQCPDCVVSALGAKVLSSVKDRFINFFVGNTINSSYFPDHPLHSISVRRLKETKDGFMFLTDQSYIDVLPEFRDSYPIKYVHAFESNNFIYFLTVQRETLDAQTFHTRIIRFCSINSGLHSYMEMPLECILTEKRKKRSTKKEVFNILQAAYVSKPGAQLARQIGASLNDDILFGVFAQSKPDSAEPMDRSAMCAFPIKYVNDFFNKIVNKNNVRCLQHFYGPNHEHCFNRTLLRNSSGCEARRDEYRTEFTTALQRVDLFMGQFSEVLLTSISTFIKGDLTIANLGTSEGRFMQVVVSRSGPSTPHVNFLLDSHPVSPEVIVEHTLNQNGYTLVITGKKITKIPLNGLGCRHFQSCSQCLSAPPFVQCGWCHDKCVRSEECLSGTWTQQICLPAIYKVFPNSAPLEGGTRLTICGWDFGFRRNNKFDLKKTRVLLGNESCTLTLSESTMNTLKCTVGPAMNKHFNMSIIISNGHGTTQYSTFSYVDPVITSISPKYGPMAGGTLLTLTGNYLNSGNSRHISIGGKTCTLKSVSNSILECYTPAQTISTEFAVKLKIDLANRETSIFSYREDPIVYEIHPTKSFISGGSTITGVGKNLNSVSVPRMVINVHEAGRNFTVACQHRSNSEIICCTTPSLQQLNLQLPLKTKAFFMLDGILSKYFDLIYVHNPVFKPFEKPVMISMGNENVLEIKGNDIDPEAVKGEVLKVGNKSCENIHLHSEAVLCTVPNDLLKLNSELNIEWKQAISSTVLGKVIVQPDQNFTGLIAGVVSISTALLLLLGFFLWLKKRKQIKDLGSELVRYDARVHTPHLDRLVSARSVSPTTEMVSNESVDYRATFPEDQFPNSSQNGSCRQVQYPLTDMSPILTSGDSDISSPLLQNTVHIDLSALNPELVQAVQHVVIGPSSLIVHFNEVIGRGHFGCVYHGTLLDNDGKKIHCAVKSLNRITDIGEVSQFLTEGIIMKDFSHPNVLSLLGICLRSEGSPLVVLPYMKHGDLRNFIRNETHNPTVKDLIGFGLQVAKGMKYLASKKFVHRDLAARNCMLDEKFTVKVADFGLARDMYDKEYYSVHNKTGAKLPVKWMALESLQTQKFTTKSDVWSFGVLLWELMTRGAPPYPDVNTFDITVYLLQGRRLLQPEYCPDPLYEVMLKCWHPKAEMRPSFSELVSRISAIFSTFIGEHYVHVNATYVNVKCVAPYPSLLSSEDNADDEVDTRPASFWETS

In the next test the target is T1, FLT-3 (Homo sapiens, UniProt P36888).
T1 construct: 0.02% BSA and 3 nM FLT-3
T1 sequence (P36888 27-993): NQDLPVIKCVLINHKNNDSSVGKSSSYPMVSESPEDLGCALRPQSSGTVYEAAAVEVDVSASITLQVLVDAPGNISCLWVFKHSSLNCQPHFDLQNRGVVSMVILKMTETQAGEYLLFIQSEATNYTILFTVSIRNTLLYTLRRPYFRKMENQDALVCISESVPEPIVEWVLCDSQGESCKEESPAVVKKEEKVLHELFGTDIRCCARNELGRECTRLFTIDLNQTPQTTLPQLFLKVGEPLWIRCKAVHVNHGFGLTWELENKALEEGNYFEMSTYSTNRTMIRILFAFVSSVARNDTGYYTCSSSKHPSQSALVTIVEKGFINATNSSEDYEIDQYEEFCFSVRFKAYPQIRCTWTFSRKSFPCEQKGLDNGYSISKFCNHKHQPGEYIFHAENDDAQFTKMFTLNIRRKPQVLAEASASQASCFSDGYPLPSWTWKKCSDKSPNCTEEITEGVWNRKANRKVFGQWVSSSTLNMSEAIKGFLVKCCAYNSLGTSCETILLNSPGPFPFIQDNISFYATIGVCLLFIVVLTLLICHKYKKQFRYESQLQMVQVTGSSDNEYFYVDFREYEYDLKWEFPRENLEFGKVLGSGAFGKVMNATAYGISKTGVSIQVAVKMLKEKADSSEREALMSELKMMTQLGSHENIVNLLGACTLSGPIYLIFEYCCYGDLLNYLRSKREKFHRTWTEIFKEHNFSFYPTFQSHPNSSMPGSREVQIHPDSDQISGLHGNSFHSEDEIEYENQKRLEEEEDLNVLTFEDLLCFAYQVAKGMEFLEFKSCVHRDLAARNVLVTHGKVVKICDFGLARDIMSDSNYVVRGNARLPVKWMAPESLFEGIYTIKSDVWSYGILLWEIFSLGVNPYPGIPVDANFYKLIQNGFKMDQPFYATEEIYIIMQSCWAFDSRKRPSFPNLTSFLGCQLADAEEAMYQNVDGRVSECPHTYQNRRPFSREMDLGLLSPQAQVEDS
The test can be described thus: Inhibition of FLT-3, radiometric filter-binding assay. It counts as biochemical. As to conditions: 90 μM ATP, 0.5 mg/mL pE4Y, room temperature. As to the method:
Compounds were screened for their ability to inhibit FLT-3 activity using a radiometric filter-binding assay. This assay monitors the ^33P incorporation into a substrate poly(Glu, Tyr) 4:1 (pE4Y). Reactions were carried out in a solution containing 100 mM HEPES (pH 7.5), 10 mM MgCl2, 25 mM NaCl, 1 mM DTT, 0.01% BSA and 2.5% DMSO. Final substrate concentrations in the assay were 90 μM ATP and 0.5 mg/mL pE4Y (both from Sigma Chemicals, St Louis, Mo.). The final concentration of compounds is generally between 0.01 and 5 μM. Typically, a 12-point titration was conducted by preparing serial dilutions from 10 mM DMSO stock of test compound. Reactions were carried out at room temperature.
Two assay solutions were prepared. Solution 1 contains 100 mM HEPES (pH 7.5), 10 mM MgCl2, 25 mM NaCl, 1 mg/ml pE4Y and 180 μM ATP(containing 0.3 μCi of [γ-^33P]ATP for each reaction). Solution 2 contains 100 mM HEPES (pH 7.5), 10 mM MgCl2, 25 mM NaCl, 2 mM DTT, 0.02% BSA and 3 nM FLT-3. The assay was run on a 96 well plate by mixing 50 μL each of Solution 1 and […] of the test compounds. The reaction was initiated with Solution2. After incubation for 20 minutes at room temperature, the reaction was stopped with 50 μL of 20% TCA containing 0.4 mM of ATP. All of the reaction volume was then transferred to a filter plate and washed with 5% TCA by a Harvester9600 from TOMTEC (Hamden, Conn.). The amount of ^33P incorporation into pE4y was analyzed by a Packard TopCount Microplate Scintillation Counter (Meriden, Conn.). The data was fitted using Prism software to get an IC50 or Ki.

The Ki is the dissociation constant of the complex between target and ligand, obtained from inhibition or displacement. Take `CC(=O)N1CCC(c2cnc3[nH]cc(-c4oncc4-c4cccc(F)c4F)c3c2)CC1` [Compound 63, 1-(4-{3-[4-(2,3-Difluoro-phenyl)-isoxazol-5-yl]-1H-pyrrolo[2,3-b]pyridin-5-yl}-piperidin-1-yl)-ethanone]: the results for the Ki on c-Met and at FLT-3 were less than 200 nM and 200 to 1000 nM, respectively.

Regarding `CN(C)c1cccc(-c2cnc3[nH]cc(-c4oncc4-c4cccc(F)c4F)c3c2)c1` [Compound 61, (3-{3-[4-(2,3-Difluoro-phenyl)-isoxazol-5-yl]-1H-pyrrolo[2,3-b]pyridin-5-yl}-phenyl)-dimethyl-amine], the inhibition constant (Ki) at c-Met was less than 200 nM; on FLT-3, 200 to 1000 nM.

As for `CN1CCC(c2cnc3[nH]cc(-c4oncc4-c4cccc(F)c4F)c3c2)CC1` [Compound 60, 3-[4-(2,3-Difluoro-phenyl)-isoxazol-5-yl]-5-(1-methyl-piperidin-4-yl)-1H-pyrrolo[2,3-b]pyridine], the Ki on c-Met was less than 200 nM; on FLT-3, 1000 to 12500 nM.

For the molecule `OC1CCN(c2ccc(-c3cnc4[nH]cc(-c5nncn5-c5cccc(F)c5F)c4c3)cn2)CC1` [Compound 116, 5′-{3-[4-(2,3-Difluoro-phenyl)-4H-[1,2,4]triazol-3-yl]-1H-pyrrolo[2,3-b]pyridin-5-yl}-3,4,5,6-tetrahydro-2H-[1,2′]bi-pyridinyl-4-ol], the Ki at c-Met is less than 200 nM; on FLT-3, 200 to 1000 nM.

For `Fc1cccc(-c2cnoc2-c2c[nH]c3ncc(-c4ccc(N5CCNCC5)cc4)cc23)c1F` [Compound 68, 3-[4-(2,3-Difluoro-phenyl)-isoxazol-5-yl]-5-(4-piperazin-1-yl-phenyl)-1H-pyrrolo[2,3-b]pyridine], the inhibitory constant (Ki) on c-Met and at FLT-3 was less than 200 nM in each case.

For the molecule `Oc1cccc(-c2cnc3[nH]cc(-c4oncc4-c4cccc(F)c4F)c3c2)c1` [Compound 87, 3-{3-[4-(2,3-Difluoro-phenyl)-isoxazol-5-yl]-1H-pyrrolo [2,3-b]pyridin-5-yl}-phenol], the inhibition constant Ki at c-Met and on FLT-3 was less than 200 nM in each case.

As for `Fc1cccc(-n2cnnc2-c2c[nH]c3ncc(-c4ccc(CN5CCOCC5)cc4)cc23)c1F` [Compound 109, 3-[4-(2,3-Difluoro-phenyl)-4H-[1,2,4]triazol-3-yl]-5-(4-morpholin-4-ylmethyl-phenyl)-1H-pyrrolo[2,3-b]pyridine], the Ki at c-Met is less than 200 nM; at FLT-3 it was 200 to 1000 nM.

For the molecule `Cc1noc(-c2c[nH]c3ncccc23)c1-c1cccc(F)c1F` [Compound 134, 3-[4-(2,3-Difluoro-phenyl)-3-methyl-isoxazol-5-yl]-1H-pyrrolo[2,3-b]pyridine], the figures for the inhibition constant (Ki) at c-Met and on FLT-3 were 200 to 1000 nM and less than 200 nM, respectively.

`Fc1cccc(Cc2cnoc2-c2c[nH]c3ncccc23)c1F` [Compound 36, 3-[4-(2,3-Difluoro-benzyl)-isoxazol-5-yl]-1H-pyrrolo[2,3-b]pyridine]: the inhibition constant Ki on c-Met and on FLT-3 was 1000 to 12500 nM throughout.

As to `CN1CCN(c2ccc(-c3cnc4[nH]cc(-c5nncn5-c5cccc(F)c5F)c4c3)cn2)CC1` [Compound 112], the Ki is less than 200 nM at c-Met and 200 to 1000 nM at FLT-3.

For the molecule `CC(=O)Nc1ccc(-c2cnc3[nH]cc(-c4oncc4-c4cccc(F)c4F)c3c2)cc1` [Compound 95, N-(4-{3-[4-(2,3-Difluoro-phenyl)-isoxazol-5-yl]-1H-pyrrolo[2,3-b]pyridin-5-yl}-phenyl)-acetamide], the Ki at c-Met and on FLT-3 was less than 200 nM throughout.

With `CN1CCN(Cc2ccc(-c3cnc4[nH]cc(-c5oncc5-c5cccc(F)c5F)c4c3)cc2)CC1` [Compound 94, 3-[4-(2,3-Difluoro-phenyl)-isoxazol-5-yl]-5-[4-(4-methyl-piperazin-1-ylmethyl)-phenyl]-1H-pyrrolo[2,3-b]pyridine], the Ki at c-Met and at FLT-3 was less than 200 nM in each case.

On to `Cn1ccc2c(-c3oncc3-c3cccc(F)c3F)c[nH]c2c1=O` [Compound 144, 3-[4-(2,3-Difluoro-phenyl)-isoxazol-5-yl]-6-methyl-1,6-dihydro-pyrrolo[2,3-c]pyridin-7-one], for which the Ki on c-Met fell in the range of 200 to 1000 nM; at FLT-3, 1000 to 12500 nM.

As for `CNc1ccc2c(-c3oncc3-c3cccc(F)c3F)c[nH]c2n1` [Compound 102, {3-[4-(2,3-Difluoro-phenyl)-isoxazol-5-yl]-1H-pyrrolo[2,3-b]pyridin-6-yl}-methyl-amine], the Ki at c-Met is less than 200 nM; at FLT-3 it was 1000 to 12500 nM.

Take `Fc1cccc(-c2cnoc2-c2c[nH]c3ncc(-c4cncnc4)cc23)c1F` [Compound 85, 3-[4-(2,3-Difluoro-phenyl)-isoxazol-5-yl]-5-pyrimidin-5-yl-1H-pyrrolo[2,3-b]pyridine]: the inhibitory constant (Ki) was less than 200 nM at c-Met and 200 to 1000 nM on FLT-3.

With `Fc1c(Cl)cccc1-c1cnoc1-c1c[nH]c2ncccc12` [Compound 42, 3-[4-(3-Chloro-2-fluoro-phenyl)-isoxazol-5-yl]-1H-pyrrolo[2,3-b]pyridine], the Ki is less than 200 nM at c-Met and 1000 to 12500 nM on FLT-3.

As for `COc1cncc(-c2cnc3[nH]cc(-c4oncc4-c4cccc(F)c4F)c3c2)c1` [Compound 96, 3-[4-(2,3-Difluoro-phenyl)-isoxazol-5-yl]-5-(5-methoxy-pyridin-3-yl)-1H-pyrrolo[2,3-b]pyridine], the inhibition constant Ki is less than 200 nM on c-Met and 200 to 1000 nM at FLT-3.

As to `CN(C)Cc1cc(Cl)nc(-c2cnc3[nH]cc(-c4oncc4-c4cccc(F)c4F)c3c2)c1` [Compound 81, (2-Chloro-6-{3-[4-(2,3-difluoro-phenyl)-isoxazol-5-yl]-1H-pyrrolo[2,3-b]pyridin-5-yl}-pyridin-4-ylmethyl)-dimethyl-amine], the Ki was less than 200 nM at c-Met and 200 to 1000 nM on FLT-3.

As to `CN1CCCN(c2ccc(-c3cnc4[nH]cc(-c5nncn5-c5cccc(F)c5F)c4c3)cn2)CC1` [Compound 117, 3-[4-(2,3-Difluoro-phenyl)-4H-[1,2,4]triazol-3-yl]-5-[6-(4-methyl-[1,4]diazepan-1-yl)-pyridin-3-yl]-1H-pyrrolo [2,3-b]-pyridine], the figures for the Ki at c-Met and at FLT-3 were less than 200 nM and 200 to 1000 nM, respectively.

As to `Fc1cccc(-c2cnoc2-c2c[nH]c3ncc(-c4ccccc4)cc23)c1F` [Compound 58, 3-[4-(2,3-Difluoro-phenyl)-isoxazol-5-yl]-5-phenyl-1H-pyrrolo[2,3-b]pyridine], the figures for the inhibition constant (Ki) at c-Met and on FLT-3 were less than 200 nM and 200 to 1000 nM, respectively.

Take `Fc1cccc(-c2cnoc2-c2c[nH]c3ncc(-c4ccccn4)cc23)c1F` [Compound 73, 3-(4-(2,3-Difluoro-phenyl)-isoxazol-5-yl)-5-pyridin-2-yl-1H-pyrrolo[2,3-b]pyridine]: the Ki is less than 200 nM on c-Met and 200 to 1000 nM at FLT-3.

Consider `Fc1cccc(-c2cnoc2-c2c[nH]c3ncc(-c4ccc(CN5CCOCC5)cc4)cc23)c1F` [Compound 92, 3-[4-(2,3-Difluoro-phenyl)-isoxazol-5-yl]-5-(4-morpholin-4-ylmethyl-phenyl)-1H-pyrrolo[2,3-b]pyridine], for which the Ki on c-Met and on FLT-3 was less than 200 nM each time.
